Species on record: Rattus norvegicus
Assay: DrugMatrix - Regimen: Daily Repeat
Type: toxicity, organism-based, Sprague-Dawley
Set-up: regimen Daily Repeat, gender Male, age 6-8 weeks
Conditions: in vivo, po, 17 mg/kg, route oral GAVAGE, dose level High, vehicle .5 % CMC; for ABSOLUTE BASOPHIL / ABSOLUTE EOSINOPHIL / ABSOLUTE LYMPHOCYTE / ABSOLUTE MONOCYTE / ABSOLUTE SEGMENTED NEUTROPHIL / BASOPHIL / EOSINOPHIL / ERYTHROCYTE COUNT / HEMATOCRIT / HEMOGLOBIN / LEUKOCYTE COUNT / LYMPHOCYTE / MEAN CORPUSCULAR HEMOGLOBIN / MEAN CORPUSCULAR HEMOGLOBIN CONCENTRATION / MEAN CORPUSCULAR VOLUME / MONOCYTE / NEUTROPHIL / NUCLEATED RED BLOOD CELLS / PLATELET COUNT: tissue Blood
[1] = 72 h, tissue Plasma, time 3 day
[2] = 120 h, tissue Plasma, time 5 day

COc1ccc(C(=O)Nc2c(Cl)cncc2Cl)cc1OC1CCCC1
ABSOLUTE BASOPHIL (72 h, time 3 day): 0 CELLS/uL | ABSOLUTE EOSINOPHIL (72 h, time 3 day): 110.33 CELLS/uL | ABSOLUTE LYMPHOCYTE (72 h, time 3 day): 17172 CELLS/uL | ABSOLUTE MONOCYTE (72 h, time 3 day): 305.67 CELLS/uL | ABSOLUTE SEGMENTED NEUTROPHIL (72 h, time 3 day): 3612 CELLS/uL | BASOPHIL (72 h, time 3 day): 0% | EOSINOPHIL (72 h, time 3 day): 0.67% | ERYTHROCYTE COUNT (72 h, time 3 day): 5.87 x10E6/uL | HEMATOCRIT (72 h, time 3 day): 36.6% | HEMOGLOBIN (72 h, time 3 day): 13.33 G/DL | LEUKOCYTE COUNT (72 h, time 3 day): 21.2 x10E3/uL | LYMPHOCYTE (72 h, time 3 day): 82.67% | MEAN CORPUSCULAR HEMOGLOBIN (72 h, time 3 day): 22.73 pg | MEAN CORPUSCULAR HEMOGLOBIN CONCENTRATION (72 h, time 3 day): 36.47 G/DL | MEAN CORPUSCULAR VOLUME (72 h, time 3 day): 62.43 fL | MONOCYTE (72 h, time 3 day): 1.33% | NEUTROPHIL (72 h, time 3 day): 15.33% | NUCLEATED RED BLOOD CELLS (72 h, time 3 day): 0 /100WBC | PLATELET COUNT (72 h, time 3 day): 1117.33 x10E3/uL | ALANINE AMINOTRANSFERASE [1]: 51.67 u/L | ALBUMIN [1]: 3.77 G/DL | ALKALINE PHOSPHATASE [1]: 361.67 u/L | ASPARTATE AMINOTRANSFERASE [1]: 68.67 u/L | BLOOD UREA NITROGEN [1]: 17.33 mg/dL | CARBON DIOXIDE [1]: 31.33 mmol/L | CHLORIDE [1]: 103 MEQ/L | CHOLESTEROL [1]: 74.67 mg/dL | CREATININE [1]: 0.18 mg/dL | GLUCOSE [1]: 188.33 mg/dL | LACTATE DEHYDROGENASE [1]: 139 u/L | LIPASE [1]: 9.33 u/L | PHOSPHORUS [1]: 12.77 mg/dL | POTASSIUM [1]: 6.6 MEQ/L | SODIUM [1]: 149.03 MEQ/L | TOTAL BILIRUBIN [1]: 0.13 mg/dL | TOTAL PROTEIN [1]: 6.1 G/DL | URIC ACID [1]: 2.07 mg/dL | ABSOLUTE BASOPHIL (120 h, time 5 day): 0 CELLS/uL | ABSOLUTE EOSINOPHIL (120 h, time 5 day): 84.67 CELLS/uL | ABSOLUTE LYMPHOCYTE (120 h, time 5 day): 11281 CELLS/uL | ABSOLUTE MONOCYTE (120 h, time 5 day): 472.33 CELLS/uL | ABSOLUTE SEGMENTED NEUTROPHIL (120 h, time 5 day): 1195.33 CELLS/uL | BASOPHIL (120 h, time 5 day): 0% | EOSINOPHIL (120 h, time 5 day): 0.67% | ERYTHROCYTE COUNT (120 h, time 5 day): 6 x10E6/uL | HEMATOCRIT (120 h, time 5 day): 36.73% | HEMOGLOBIN (120 h, time 5 day): 13.33 G/DL | LEUKOCYTE COUNT (120 h, time 5 day): 13.03 x10E3/uL | LYMPHOCYTE (120 h, time 5 day): 86.33% | MEAN CORPUSCULAR HEMOGLOBIN (120 h, time 5 day): 22.23 pg | MEAN CORPUSCULAR HEMOGLOBIN CONCENTRATION (120 h, time 5 day): 36.3 G/DL | MEAN CORPUSCULAR VOLUME (120 h, time 5 day): 61.23 fL | MONOCYTE (120 h, time 5 day): 3.67% | NEUTROPHIL (120 h, time 5 day): 9.33% | NUCLEATED RED BLOOD CELLS (120 h, time 5 day): 0 /100WBC | PLATELET COUNT (120 h, time 5 day): 1070.67 x10E3/uL | ALANINE AMINOTRANSFERASE [2]: 64 u/L | ALBUMIN [2]: 4.1 G/DL | ALKALINE PHOSPHATASE [2]: 400 u/L | ASPARTATE AMINOTRANSFERASE [2]: 136.33 u/L | BLOOD UREA NITROGEN [2]: 13 mg/dL | CARBON DIOXIDE [2]: 34.33 mmol/L | CHLORIDE [2]: 101 MEQ/L | CHOLESTEROL [2]: 65.33 mg/dL | CREATININE [2]: 0.19 mg/dL | GLUCOSE [2]: 166.33 mg/dL | LACTATE DEHYDROGENASE [2]: 276.33 u/L | LIPASE [2]: 8.33 u/L | PHOSPHORUS [2]: 11.3 mg/dL | POTASSIUM [2]: 6.12 MEQ/L | SODIUM [2]: 149.43 MEQ/L | TOTAL BILIRUBIN [2]: 0.2 mg/dL | TOTAL PROTEIN [2]: 6.63 G/DL

Source: ChEMBL document CHEMBL3885881, “DrugMatrix”
